From paper PMC6684646, “Lysosomal integral membrane protein-2 (LIMP-2/SCARB2) is involved in lysosomal cholesterol export” (Nature Communications, 2019)

Columns and labels:
[1] = target: T1, LIMP-2 ectodomain (His6.hLIMP-2(aa35-430)) (Homo sapiens, UniProt Q14108); assay: UV crosslinking and click rhodamine, SDS-PAGE; type: binding; settings: covalent; labelled compound; 50 µM probe, 12 h at 4 °C, UV 15 min
T1 construct: gene SCARB2; luminal domain aa 35-430, N-terminal His6 tag (cloned after a protein A tag)
T1 sequence (Q14108 35-430): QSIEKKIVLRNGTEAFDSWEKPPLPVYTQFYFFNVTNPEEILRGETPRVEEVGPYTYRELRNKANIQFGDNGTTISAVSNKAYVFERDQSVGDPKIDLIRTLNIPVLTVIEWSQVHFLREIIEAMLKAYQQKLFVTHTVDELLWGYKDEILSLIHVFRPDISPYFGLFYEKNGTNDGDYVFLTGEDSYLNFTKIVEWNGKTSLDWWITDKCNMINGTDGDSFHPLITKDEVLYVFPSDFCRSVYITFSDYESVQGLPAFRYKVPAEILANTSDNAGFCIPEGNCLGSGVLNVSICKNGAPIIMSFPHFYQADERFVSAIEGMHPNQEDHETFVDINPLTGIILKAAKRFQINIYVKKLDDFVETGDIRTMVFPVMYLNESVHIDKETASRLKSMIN

[2] = target: T1, LIMP-2 ectodomain (His6.hLIMP-2(aa35-430)); assay: microscale thermophoresis; type: binding; settings: 25 nM protein labelled with Red-tris-NTA; 300 mM NaAc pH 6.0, 150 mM NaCl, 0.05% Tween 20, 0.1% Fos-Choline 13; room temperature; read-out: EC50
Text: microscale thermophoresis on LIMP-2 ectodomain (His6.hLIMP-2(aa35-430)) | direct interaction between purified, soluble His-tagged LIMP-2 protein labeled with Red-tris-NTA dye and cholesterol

Kd [2] [µM]	Structure (SMILES)	UV crosslinking and click rhodamine, SDS-PAGE [1]
–	C#CCCCC1(CCCCCCCCC(=O)O)N=N1 [pacFA]	fatty acids, ceramide and sphingosine bound with lower affinity
–	C#CCCCC1(CCCCCCCCC(=O)N[C@@H](CO)[C@H](O)/C=C/CCCCCCCCCCCCC)N=N1 [pacFA ceramide]	fatty acids, ceramide and sphingosine bound with lower affinity
–	C#CCCCC1(CCCCCCCC/C=C/[C@@H](O)[C@@H](N)CO)N=N1 [photoclick sphingosine]	fatty acids, ceramide and sphingosine bound with lower affinity
0.112 ± 0.032	CC(C)CCC[C@@H](C)[C@H]1CC[C@H]2[C@@H]3CC=C4C[C@@H](O)CC[C@]4(C)[C@H]3CC[C@]12C [cholesterol]	–
